In data set [1] the target is cyclophilin A (Homo sapiens, UniProt P62937). The following applies: cited from earlier work.
Data set [2] concerns cytochrome P450 2B6. The settings on record: metabolic studies; cited from earlier work.
The conditions of data set [3]: cited from earlier work.
In data set [4] the test system is hepatitis C virus (HCV). The following applies: two-drug combination, in vitro; cited from earlier work.
Data set [5] has as its system anesthesia/surgery-induced delirium-like behavior in mice. As to the kind of experiment: Y Maze Test after anesthesia/surgery. In kind it is in vivo. The following applies: 40 mg/kg IP 30 minutes before anesthesia/surgery. From the text: (§1) Mice Anesthesia and Surgery. 18-month-old C57BL/J6 female mice were adaptive in lab for 3 days. The mice were randomly assigned to the anesthesia/surgery group or control group by weight. […] Specifically, we anesthetized each of the mice using 1.4% isoflurane in 100% oxygen in a transparent acrylic chamber. Fifteen minutes after the induction, we moved the mouse out of the chamber. Isoflurane anesthesia was maintained via a cone device, and one 16-gauge needle was inserted into the cone near the nose of the mouse to monitor the concentration of isoflurane. We made a longitudinal midline incision from the xiphoid to the 0.5 centimeter proximal pubic symphysis on the skin, abdominal muscles and peritoneum. We then sutured the incision layer by layer with 5-0 Vicryl thread.
(§2) WS635 Treatment. WS635 was dissolved in corn oil with 10% DMSO, each of the mice will be injected with WS635 solution in the dose of 40 mg/kg for 0.2 ml through IP at 30 minutes before control condition or anesthesia/surgery by using 27G×½ needles. The mice in control group received 0.2 ml of corn oil with 10% DMSO.
(§3) Behaviors Tests. […] We will perform the behavior tests in groups of 3 mice and finished them within 50 minutes, which mimics the certain features of clinical evaluation of delirium in patients.
Y Maze Test. Specifically, the Y maze, made of gray polyvinylene, will be placed in a quiet and illuminated room. […]

The test system of data set [6] is hepatitis C virus (HCV) replication. The following applies: in vitro; cited from earlier work.
In data set [7] the test system is anesthesia/surgery-induced cognitive impairment in mice. Description: anesthesia/surgery-induced cognitive impairment in mice. In kind it is in vivo. The settings on record: 1.4% isoflurane and abdominal surgery.
Description: as §1
Mice Anesthesia for isoflurane-induced cognitive impairment experiment. 8 month-old C57BL/6J mice. Anesthesia: 1.4% isoflurane for two hours.
WS635 Treatment for isoflurane-induced cognitive impairment experiment. WS635 was dissolved in 10% DMSO plus corn oil. Each mouse received 26.4 mg/kg WS635 or same volume of vehicle (10% DMSO plus corn oil) at 30 minutes before the anesthesia. Then, the mice were tested in Fear Conditioning System at 48 hours and 7 days after the anesthesia.
WS635 Treatment. […]

Data set [8] concerns the target P-glycoprotein (Homo sapiens, UniProt P08183). The following applies: cited from earlier work.
Data set [9] relates to anesthesia/surgery-induced delirium-like behavior in mice. As to the kind of experiment: Buried Food Test after anesthesia/surgery. In kind it is in vivo.
Description: as §1, §2, §3
Buried Food Test. Specifically, two days before the test, we will give each mouse 2 pieces of the sweetened cereal. […]

The test system of data set [10] is stimulated human peripheral blood mononuclear cells. The settings on record: compared with cyclosporine; cited from earlier work.
The test system of data set [11] is cytochrome P450 3A4. The settings on record: metabolic studies; cited from earlier work.
Data set [12] concerns cytochrome P450 1A2. The settings on record: metabolic studies; cited from earlier work.
Data set [13] has as its system anesthesia/surgery-induced delirium-like behavior in mice. Description: delirium-like behaviors overall (composite Z score) after anesthesia/surgery. It is filed as in vivo.
Description: as §1, §2
Behaviors Tests. […] We will perform the behavior tests in groups of 3 mice and finished them within 50 minutes, which mimics the certain features of clinical evaluation of delirium in patients. […]

The subject of data set [14] is stimulated Jurkat cells. The settings on record: compared with cyclosporine; cited from earlier work.
For data set [15], the system named is anesthesia/surgery-induced delirium-like behavior in mice. Description: Open Field Test after anesthesia/surgery. In kind it is in vivo. The following applies: 40 mg/kg IP 30 minutes before anesthesia/surgery.
Description: as §1, §2, §3
Open Field Test. Specifically, the mouse will be gently placed in the center of an open field chamber (40×40×40 centimeters) under dim light and will be allowed to move freely for 5 minutes. The movement parameters of the mouse will be monitored and analyzed via a video camera connected to the Any-Maze animal tracking system software (Stoelting Co., Wood Dale, IL). The total distance moved (meters), the time (seconds) spent in the center of the open field, the freezing time (seconds) and the latency (the time in seconds for the mice to reach to the location at the first attempt) to the center of the open field will be recorded and analyzed. The floor of the open field will be cleaned with 70% ethanol solution between each test. […]

Data set [16] has as its system calcineurin. The settings on record: at concentrations up to 2 μM; cited from earlier work.

Chain of P-glycoprotein (P08183 whole entry): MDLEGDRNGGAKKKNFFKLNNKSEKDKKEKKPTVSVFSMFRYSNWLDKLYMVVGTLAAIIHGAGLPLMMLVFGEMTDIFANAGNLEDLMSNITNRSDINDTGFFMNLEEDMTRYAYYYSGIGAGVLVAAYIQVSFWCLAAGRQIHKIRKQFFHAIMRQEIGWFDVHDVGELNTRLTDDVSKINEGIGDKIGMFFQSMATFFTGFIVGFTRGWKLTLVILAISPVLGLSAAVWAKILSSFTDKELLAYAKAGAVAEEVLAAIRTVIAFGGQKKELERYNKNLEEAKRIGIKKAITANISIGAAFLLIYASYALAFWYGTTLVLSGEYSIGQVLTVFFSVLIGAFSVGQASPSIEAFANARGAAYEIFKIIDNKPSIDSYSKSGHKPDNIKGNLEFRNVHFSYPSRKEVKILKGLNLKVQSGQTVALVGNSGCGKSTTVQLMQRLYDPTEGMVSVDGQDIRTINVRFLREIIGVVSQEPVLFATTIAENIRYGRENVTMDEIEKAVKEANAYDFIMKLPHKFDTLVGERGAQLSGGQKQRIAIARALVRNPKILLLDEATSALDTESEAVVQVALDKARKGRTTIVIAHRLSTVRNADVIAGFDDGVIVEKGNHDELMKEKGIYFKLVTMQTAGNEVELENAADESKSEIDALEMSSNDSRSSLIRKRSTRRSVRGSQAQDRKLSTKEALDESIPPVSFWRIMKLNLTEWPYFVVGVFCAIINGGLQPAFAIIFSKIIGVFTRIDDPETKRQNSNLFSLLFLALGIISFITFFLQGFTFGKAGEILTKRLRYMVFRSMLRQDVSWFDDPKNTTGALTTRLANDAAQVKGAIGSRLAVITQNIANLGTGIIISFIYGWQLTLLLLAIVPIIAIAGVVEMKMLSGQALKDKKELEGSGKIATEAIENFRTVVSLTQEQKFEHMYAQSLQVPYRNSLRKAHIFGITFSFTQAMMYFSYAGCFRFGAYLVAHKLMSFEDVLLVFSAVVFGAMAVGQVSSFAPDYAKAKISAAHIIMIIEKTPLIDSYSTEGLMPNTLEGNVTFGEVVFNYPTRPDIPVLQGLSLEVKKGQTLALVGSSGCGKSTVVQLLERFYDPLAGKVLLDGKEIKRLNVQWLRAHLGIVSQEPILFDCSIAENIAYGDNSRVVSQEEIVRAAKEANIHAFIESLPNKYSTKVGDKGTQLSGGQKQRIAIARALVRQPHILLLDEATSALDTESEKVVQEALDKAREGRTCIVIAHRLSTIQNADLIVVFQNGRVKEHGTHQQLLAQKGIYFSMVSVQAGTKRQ
Chain of cyclophilin A (P62937 whole entry, species assumed): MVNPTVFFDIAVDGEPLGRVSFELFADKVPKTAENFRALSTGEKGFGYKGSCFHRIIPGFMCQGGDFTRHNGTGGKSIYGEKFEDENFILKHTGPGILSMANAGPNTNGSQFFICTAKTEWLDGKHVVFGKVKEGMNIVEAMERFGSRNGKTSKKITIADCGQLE

As to `C/C=C/C[C@@H](C)[C@@H](O)[C@H]1C(=O)N[C@@H](CC)C(=O)N(C)[C@H](SCCN(C)C)C(=O)N(C)[C@@H](CC(C)(C)O)C(=O)N[C@@H](C(C)C)C(=O)N(C)[C@@H](CC(C)C)C(=O)N[C@@H](C)C(=O)N[C@H](C)C(=O)N(C)[C@@H](CC(C)C)C(=O)N(C)[C@@H](CC(C)C)C(=O)N(C)[C@@H](C(C)C)C(=O)N1C` [WS635, (3 S,6 S,9S,12R,15 S,18 S,21 S,24S,27R,30S,33 S)-27-((2-(dimethylamino)ethyl)thio)-30-ethyl-33-((1R,2R,E)-1-hydroxy-2-methylhex-4-en-1-yl)-24-(2-hydroxy-2-methy 1propyl)-6,9,18-tri isobutyl-3,21-diisopropyl-1,4,7,10,12,15,19,25,28-nonamethyl-1,4,7,10,13,16,19,22,25,28,3 1-undecaazacyclotritriacontan-2,5,8,11,14,17,20,23,26,29,32-undecaone], the “inhibition of the peptidyl prolyl isomerase activity of cyclophilin A” value in data set [1] was “nanomolar concentrations”. Further, the “induction of cytochrome P450 2B6” value in [2] was “did not induce”. In addition, in data set [3] (in vivo, po), the “blood and liver concentrations of parent drug versus 50% effective dose in replicon assay” value was “exceeded the 50% effective dose”. Moreover, the oral bioavailability result in data set [3] (multiple animal species) is “orally bioavailable”. Besides, in data set [4], the “antiviral activity in combination with alpha interferon 2b” value is given as “synergistic antiviral activity” and the “antiviral activity in combination with ribavirin” value is given as “additive antiviral activity”. Besides, in [5], the “anesthesia/surgery-induced decrease of duration in the novel arm in the Y maze test” value is reported as “can attenuate” and the “anesthesia/surgery-induced decrease of number of entries in the novel arm in the Y maze test” value is listed as “can attenuate”. Also, the “suppression of hepatitis C virus (HCV) replication” value in data set [6] is “potent suppression”. Also, the anesthesia/surgery-induced cognitive impairment result in [7] is “significantly attenuate”. Further, in data set [8], the P-glycoprotein inhibition result was “weak inhibitor” and the P-glycoprotein substrate result is “poor substrate”. The “anesthesia/surgery-induced increase of latency to eat food in the buried food test” value in data set [9] (40 mg/kg IP 30 minutes before anesthesia/surgery, 18-month-old C57BL/J6 female mice) was “can attenuate”. Besides, the “anesthesia/surgery-induced changes in Buried Food Test, dose dependence” value in data set [9] (mice) is on record as “dose-dependent manner”. Further, the “inhibition of interleukin-2 secretion” value in data set [10] is listed as “weaker inhibitor of interleukin-2 secretion than cyclosporine”. The “induction of cytochrome P450 3A4” value in [11] is listed as “did not induce”. In addition, in data set [12], the “induction of cytochrome P450 1A2” value is “did not induce”. Besides, the “anesthesia/surgery-induced changes of delirium-like behaviors” value in data set [13] (40 mg/kg) is reported as “more effectively attenuate”. Further, the “anesthesia/surgery-induced delirium-like behavior (composite Z score)” value in data set [13] (FIG. 15) is listed as “able to attenuate”. Also, in data set [14], the “inhibition of interleukin-2 secretion” value is “weaker inhibitor of interleukin-2 secretion than cyclosporine”. In [15], the “anesthesia/surgery-induced change of freezing time in the open field test” value was “can attenuate”, the “anesthesia/surgery-induced decrease of time spent in the center of the open field” value is “can attenuate” and the “anesthesia/surgery-induced increase of latency to the center in the open field test” value is recorded as “can attenuate”. Besides, the “inhibition of calcineurin phosphatase activity” value in [16] is on record as “no detectable inhibition”.

The values above are taken from patent publication US20240016884A1, “WS635 USES THEREOF IN MEDICINE” (WATERSTONE PHARMACEUTICALS (WUHAN) CO., LTD., priority 2021, published 2024).
